# Experimental data: US9050353B2, “Use of icariin and epimedium flavonoids containing icariin to treat diseases associated with myelin sheath lesion” (Xuanwu Hospital of Capital Medical University, priority 2010, dated 2015)
# Legend:
# [1] = tested on: nitric-oxide synthase (NOS); experiment: NOS activity of cerebral cortex, biochemical kit, EAE rats; type: in vivo; settings: positive control drug, dose not given
# Description: (§1) Preparation of rat model and administration: experimental autoimmune encephalomyelitis (EAE) model is an important tool for studying various human demyelinating diseases of nervous system. In the example, the preparation of EAE rat model was performed by multipoint immunizing female Lewis rats subcutaneously at tail root with a homogenate of spinal cord and cerebral gray matter of Guinea pig as well as complete Freund's adjuvant after emulsification. They were intragastrically administered with Epimedium flavanoids for 3 weeks.
# (§2) Experimental objective: nitric-oxide synthase (NOS) catalyzes the generation of nitric oxide (NO). During inflammatory reaction, the activity of induced NOS increases, excess NO are generated and oxygen radicals are generated via oxidation, which may result in damages in nerve cells and myelin sheath. In this experiment, NOS activity and NO content were measured using biochemical kits in cerebral cortex of EAE rat model, and the effects of Epimedium flavanoids on changes thereof were observed. […]
# [2] = tested on: Nerve growth factors (NGF); experiment: NGF of spinal cord lumbar intumescentia by immunohistochemical method, EAE rats; type: in vivo; settings: positive control drug, dose not given
# Description: as §1
# (§3) Experimental objective: neurotrophic factors are important substances for constituting nerve regeneration microenvironment. Nerve growth factors (NGF) are important neurotrophic factors, can promote the regeneration and plerosis of nerve cells and myelin sheath. In this experiment, NGF content of spinal cord lumbar intumescentia in EAE rat model was measured by immunohistochemical method, and the effects of Epimedium flavanoids on the content was observed.
# (§4) Experimental method: the rats were anesthetized with 10% chloral hydrate, fixed by perfusion of 4% paraformaldehyde, spinal cord tissues were taken for frozen section. Incubated with NGF primary antibody, added with corresponding secondary antibody and third antibody, DAB colorated, observed under microscope, and pictures were analyzed using Image Pro plus5.0 software.
# [3] = tested on: myeloid tissue myelinoclasis in EAE mice model; experiment: Myelinoclasis of myeloid tissue, LFB staining, EAE mice; type: in vivo; settings: positive control drug, dose not given, scale 0-4
# Description: (§5) Preparation of mice model and administration: experimental autoimmune encephalomyelitis (EAE) mice model is an important tool for studying various human demyelinating diseases of nervous system. In the present experiment, the preparation of EAE mice model was performed by immunizing female C57BL/6J mice with myelin sheath oligodendroglial cell surface glycoprotein MOG35-55. That is, the mice were subcutaneously injected at dorsal part of spinal column with 0.2 mL of MOG35-55 antigen elixir, and 0.2 ml of bordetella pertussis solution was intraperitoneally injected at the time of immunization injection and 48 h thereafter, respectively. Icariin was intragastrically administered after the last injection of bordetella pertussis solution, for consecutive 3 weeks.
# Experimental objective: the myelinoclasis of myeloid tissue of EAE model mice were assayed by Luxol Fast Blue (LFB) staining, and the intervention effects of icariin on this pathological change were studied.
# Experimental method: the mice were anesthetized with 10% chloral hydrate on the 29th day of experiment, fixed by perfusion of 4% paraformaldehyde, myeloid tissues were taken for making paraffin sections, section thickness […]. Stained with LFB, observed under microscope, and scored according to the following standard: 0 score, absence of myelinoclasis; 1 score, one small range of myelinoclasis; 2 score, 2 or 3 small ranges of myelinoclasis; 3 score, 1 to 2 large ranges of myelinoclasis; 4 score, large ranges of myelinoclasis accumulatively existing in 20% or more of white matter regions.
# [4] = tested on: inflammatory cell infiltration in spinal cord tissues of EAE mice model; experiment: Inflammatory cell infiltration in spinal cord, HE staining, EAE mice; type: in vivo; settings: positive control drug, dose not given, scale 0-4
# Description: as §5
# Experimental objective: the pathological changes of spinal cord in EAE model, especially inflammatory cell infiltration situations was assayed by hematoxylin-eosin (HE) staining test, and the intervention effects of […] on these pathological changes were observed.
# Experimental method: the mice were anesthetized with 10% chloral hydrate on the 28th day of experiment, fixed by perfusion of 4% paraformaldehyde, spinal cord tissues were taken for making paraffin sections, section thickness […]. Stained with HE, observed under microscope, and scored according to the following standard: 0 score, absence of cell infiltration; 1 score, spinal meninge cell infiltration; 2 score, 1 to 4 small ranges of cell infiltration around vessels; 3 score, 5 or more small ranges of cell infiltration around vessels, or one or more accumulatively substantial large range of cell infiltration; 4 score, a large number of cell infiltration ranges accumulatively existing in 20% or more of white matter regions.
# [5] = tested on: Brain-derived neurotrophic factor (BDNF); experiment: BDNF of spinal cord lumbar intumescentia by immunohistochemical method, EAE rats; type: in vivo; settings: positive control drug, dose not given
# Description: as §1
# as §3, with “Brain-derived neurotrophic factor (BDNF) is an” for “Nerve growth factors (NGF) are”, “factor,” for “factors,”, “of” for “of nerve cells and”, “BDNF” for “NGF”
# as §4, with “BDNF” for “NGF”
# [6] = tested on: experimental autoimmune encephalomyelitis (EAE) mice model; experiment: Nervous function damage score in EAE mice model; type: in vivo, C57BL/6J mice; settings: peak of attack, positive control drug, dose not given, scale 0-5
# Description: as §5
# Nervous function test method: the ethological changes of mice were observed by two experimenters every day using blind method. Scoring standard: 0 score, absence of symptom; 1 score, decrease of tail tension, evident slight gait awkward; 2 score, disappearance of tail tension, moderate gait abnormal, deficient in maintaining gesture; 3 score, limb strength weak; 4 score, limb paralysis; 5 score, near death or died.
# nitric oxide (NO) = experiment: NO content of cerebral cortex, biochemical kit, EAE rats; type: in vivo; settings: positive control drug, dose not given
# Description: as §1, §2
compound,measurement,setting,value
CC(=O)OCC(=O)[C@@]1(O)CC[C@H]2[C@@H]3CCC4=CC(=O)C=C[C@]4(C)[C@H]3C(=O)C[C@@]21C [prednisone acetate],NOS activity,[1],2.44 ± 0.08 U/mg protein
same,NGF positive cell Accumulative optical density,[2],11.25 ± 1.67 ×10^5
same,Myelinoclasis (LFB staining score),[3],0.77 ± 0.22
same,Inflammatory cell infiltration (HE staining score),[4],1.05 ± 0.13
same,integrated optical density of BDNF positive cell,[5],3.64 ± 0.23 ×10^5
same,total area of BDNF positive cell,[5],9.43 ± 1.12 ×10^5
same,Nervous function damage score,[6],0.89 ± 0.28
same,NO content,nitric oxide (NO),0.77 ± 0.01 mmol/mg protein
